Experimental data from PubChem BioAssay (NCI).
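Step 1: Grow cells in 96-well plates. Step 2: Expose to compound for 48 hours at 5 concentrations. Step 3: Interpolate endpoints linearly; if unreached, use highest concentration. Definition used: TGI = concentration required for complete inhibition of growth.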

Experiments:
Experiment in all cases: DTP human tumour cell line panel, 48 h
EKVX NSCLC = system: EKVX NSCLC
NCI-H226 lung = system: NCI-H226 lung
SK-MEL-5 melanoma = system: SK-MEL-5 melanoma
DU-145 prostate = system: DU-145 prostate
MDA-MB-435 = system: MDA-MB-435
OVCAR-3 ovarian = system: OVCAR-3 ovarian
HOP-62 NSCLC = system: HOP-62 NSCLC
SF-539 CNS = system: SF-539 CNS
NCI-H23 lung = system: NCI-H23 lung
SK-OV-3 ovarian = system: SK-OV-3 ovarian

SMILES	TGI (EKVX NSCLC) [µM]	TGI (NCI-H226 lung) [µM]	TGI (SK-MEL-5 melanoma) [µM]	TGI (DU-145 prostate) [µM]	TGI (MDA-MB-435) [µM]	TGI (OVCAR-3 ovarian) [µM]	TGI (HOP-62 NSCLC) [µM]	TGI (SF-539 CNS) [µM]	TGI (NCI-H23 lung) [µM]	TGI (SK-OV-3 ovarian) [µM]
COc1cc2c(cc1OCCCC(=O)Nc1cc(C(=O)Nc3cc(C(=O)Nc4cc(C(=O)NCCCN(C)C)n(C)n4)n(C)n3)n(C)n1)N=CC1CCCN1C2=O (stereo not given)	> 100	48.1	47.4	> 100	44.9	> 100	> 100	> 100	66.5	> 100
C=C(CCC(C)C1CCC2C3=C(C(=O)CC21C)C1(C)CCC(=O)[C@@H](C)C1CC3=O)C(C)C(=O)O (stereo not given in full)	> 100	> 100	> 100	> 100	> 100	> 100	> 100	> 100	> 100	5.46
Cc1cccc2c1[nH]c1[nH]c(=O)[nH]c(=O)c12	> 100	> 100	> 100	> 100	> 100	> 100	> 100	> 100	> 100	> 100
O=C1CCC2(CCO1)OCCO2	> 100	> 100	> 100	> 100	> 100	> 100	> 100	> 100	> 100	> 100
Cc1cc(C)c(P2C(=C(O[Si](C(C)C)(C(C)C)C(C)C)C(C)(C)C)C2(c2ccccc2)c2ccccc2)c(C)c1 (stereo not given)	> 100	> 100	> 100	> 100	> 100	> 100	> 100	> 100	> 100	> 100
CC(=O)O[C@@H]1C[C@@]23C[C@@]24CC[C@H](OC2OCC(O)C(O)C2O)C(C)(C)[C@@H]4CC=C3[C@]2(C)C[C@@H]3OC4(C[C@@H](C)[C@@H]3[C@@]12C)OC(O)[C@@]1(C)O[C@@H]41 (stereo not given in full)	> 100	> 100	42.7	> 100	> 100	34.5	78.3	41.4	> 100	62.8
COc1cc(/C=C/C(=O)c2c(=O)o[nH][n+]2-c2ccccc2)ccc1[O-]	15.9	> 24.1	15	5.72	9.24	4.82	16	5.92	8.78	16.1
Clc1ccc(Cc2nc3ccccc3nc2-c2cccc(Br)c2)cc1	28.9	33.1	27.5	24.5	4.71	5.76	36.1	5.23	26.6	31.2
CCOP(=O)(OCC)C(Nc1cccc(F)c1)c1ccccc1 (stereo not given)	> 100	> 100	> 100	> 100	> 100	> 100	> 100	> 100	> 100	> 100
Cc1ccc(S(=O)(=O)NNC(=O)c2cc(C)ccc2NC(=O)C23CC4CC(CC(C4)C2)C3)cc1	> 100	> 100	> 100	> 100	> 100	> 100	> 100	> 100	> 100	68.5
O=C(CSCC(=O)N/N=C/c1cccs1)N/N=C/c1cccs1	> 100	> 100	> 100	> 100	> 100	> 100	> 100	> 100	> 100	> 100
N#Cc1nc(CCCCCN2C(=O)c3ccccc3C2=O)oc1N	> 100	> 100	> 100	> 100	> 100	> 100	> 100	> 100	> 100	> 100
COC1OC(Cc2nnc(C)o2)C(OCc2ccccc2)C(OCc2ccccc2)C1OCc1ccccc1 (stereo not given)	35.5	95.6	30	> 100	39.2	60.6	> 100	> 100	56	> 100
CCOC(=O)C(=[N+]=[N-])C(=O)Nc1nn2nnnc2c2ccccc12	> 100	> 100	> 100	> 100	> 100	> 100	> 100	> 100	> 100	> 100
O=CC(O)C(O)C(O)C(O)C(=O)NCCCCCCCCCCCCNC(=O)C(O)C(O)C(O)C(O)C=O (stereo not given)	> 100	> 100	> 100	> 100	> 100	> 100	> 100	> 100	> 100	> 100
CC(=O)/C(=C/n1c(=S)[nH]c2ccccc21)C(=O)Nc1ccccc1C	> 100	> 100	> 100	> 100	> 100	> 100	> 100	> 100	> 100	> 100
CC(C)=CCC[C@@H](C)C1=C(Nc2ccccc2Cl)C(O)=C(C)C(=O)C1=O	29.7	25.3	10.1	29.3	36.1	16.5	22.7	19.8	15.9	33.5
Cc1ccc(C2=NOC(=O)[C@@H]3CCCC[C@@H]23)cc1	> 100	> 100	> 100	> 100	> 100	> 100	> 100	> 100	> 100	> 100
CC(=O)OCC1OC(n2c3c(c(-c4cccc5ccccc45)c(C#N)c2=S)CCCC3)C(OC(C)=O)C(OC(C)=O)C1OC(C)=O (stereo not given)	> 100	> 100	> 100	> 100	> 100	> 100	> 100	> 100	> 100	> 100
CCOC(=O)C(NC(=O)N(C1=NCC(C)S1)C1CCCCC1)(OC)C(F)(F)F (stereo not given)	> 100	47.5	66.8	> 100	> 100	71.1	41.7	93.1	> 100	> 100
CC[N+]1(C)CCC(O)(/C=C/c2ccc(OC)cc2)C(C(=O)/C=C/c2ccc(OC)cc2)C1 (stereo not given)	> 71.1	> 100	31.9	31.2	28.2	53	42.9	> 45.7	42.6	36.7
Cc1ccc(C(=O)N/N=C(\N=Nc2cccc(Cl)c2)c2ccc(N(CCC#N)CCC#N)cc2C)cc1	> 100	> 100	> 100	> 100	> 100	> 100	> 100	> 100	> 100	> 100
COc1cccc(CC(C)NCC(O)c2ccc(O)c(O)c2)c1 (stereo not given)	> 100	90.2	> 100	> 100	> 100	> 100	> 100	> 100	> 100	> 100
Nc1ncnc2c1ncn2C1CCC(COS(N)(=O)=O)C1 (stereo not given)	> 100	> 100	> 100	> 100	> 100	> 100	> 100	> 100	> 100	> 100
